In article PMC5863496, “Mesobuthus Venom-Derived Antimicrobial Peptides Possess Intrinsic Multifunctionality and Differential Potential as Drugs” (Frontiers in Microbiology, 2018):
Ends that are not written are not given here.

Experiments:
[1] = system: Pseudomonas aeruginosa 374; assay: Inhibition-zone assay (CL); format: cell-based; details: PA 374, N.A. = no activity at 0.8 nmol peptide each well
In short: (§1)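 Bacteria (~2 × 10^6 cells/ml) were seeded in 0.8% soft-agar medium (LB, Nutrient Broth or GYM) and grown at 30 or 37°C. Three peptide doses were placed in separate 2 mm wells, and inhibition zones were measured after overnight incubation. CL was calculated from the slope and intercept of a d^2 versus log n plot.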

[2] = system: Pseudomonas aeruginosa FRD1; assay: Inhibition-zone assay (CL); format: cell-based; details: PA FRD1, N.A. = no activity at 0.8 nmol peptide each well
In short: as §1

[3] = system: Salmonella enterica ATCC 14028; assay: Inhibition-zone assay (CL); format: cell-based; details: SE ATCC 14028, N.A. = no activity at 0.8 nmol peptide each well
In short: as §1

[4] = system: Pseudomonas solanacearum
[5] = system: Aspergillus nidulans A28; assay: Inhibition-zone assay (CL); format: cell-based; details: ANID A28, 28°C, N.A. = no activity at 0.8 nmol peptide each well
[6] = system: Aspergillus nidulans Rcho15; assay: Inhibition-zone assay (CL); format: cell-based; details: ANID Rcho15, 28°C, N.A. = no activity at 0.8 nmol peptide each well
[7] = system: Bacillus cereus CGMCC 1.1846; assay: Inhibition-zone assay (CL); format: cell-based; details: BC CGMCC 1.1846, N.A. = no activity at 0.8 nmol peptide each well
In short: as §1

[8] = system: Candida albicans 4257; assay: Inhibition-zone assay (CL); format: cell-based; details: CA 4257, 28°C, N.A. = no activity at 0.8 nmol peptide each well
[9] = system: Candida albicans JX1195; assay: Inhibition-zone assay (CL); format: cell-based; details: CA JX1195, 28°C, N.A. = no activity at 0.8 nmol peptide each well
[10] = system: Escherichia coli DH5α; assay: Inhibition-zone assay (CL); format: cell-based; details: EC DH5α, N.A. = no activity at 0.8 nmol peptide each well
In short: as §1

[11] = system: Escherichia coli JM109; assay: Inhibition-zone assay (CL); format: cell-based; details: EC JM109, N.A. = no activity at 0.8 nmol peptide each well
In short: as §1

[12] = system: Pichia pastoris X33; assay: Inhibition-zone assay (CL); format: cell-based; details: PP X33, 28°C, N.A. = no activity at 0.8 nmol peptide each well
[13] = system: fresh erythrocytes from the ICR mice; assay: Hemolytic assay, mouse erythrocytes; format: cell-based; details: mouse blood cells, 30 min, 37°C, A570
Method: (§2) Hemolytic activity of peptides against fresh erythrocytes from the ICR mice (Mus musculus), the lizards (Eremias multiocellata) or the pigeons (Columba livia domestica) was assayed according to the standard method (Zhu et al., [2012a]). An aliquot of freshly prepared venom was diluted with 0.9% NaCl to a protein concentration of ~5 mg/mL for use. The percentage of hemolysis is determined as (Apep-Ablank)/(Atot-Ablank) × 100, in which “A” represents absorbance measured at 570 nm. Ablank and Aprep were evaluated in the absence or presence of the venom or peptides. 100% hemolysis (Atot) was obtained in the presence of 1% Triton X-100.

[14] = system: fresh erythrocytes from the pigeons; assay: Hemolytic assay, bird (pigeon) erythrocytes; format: cell-based, Columba livia domestica; details: peptide 25 μM; bird blood cells; 30 min, 37°C
Method: as §2

[15] = Serum stability; format: in vitro ADME; details: fresh mouse serum, 37°C, read-out inhibition zone on Micrococcus luteus plates, triplicate
Method: To assess serum stability, peptides were dissolved in H2O or fresh mouse serum for the indicated times at 37°C and their residual activity was measured by the inhibition-zone assay (Hultmark, [1998]).

[16] = system: Serratia marcescens ATCC 14041; assay: Inhibition-zone assay (CL); format: cell-based; details: SMAR ATCC 14041, N.A. = no activity at 0.8 nmol peptide each well
In short: as §1

[17] = peptide 3.125 μM, mean ± S.D., triplicate

## FFGHLFKLATKIIPSFFRRKNQ [MAC-22]
[1]
  Lethal concentration (CL): 18.75 µM
[2]
  Lethal concentration (CL): 18.75 µM
[3]
  Lethal concentration (CL): 16.37 µM
[4]
  Lethal concentration (CL): 22.08 µM

## FLFSLIPSAISGLISAFKGRRKRDLN-NH2 [MarMEL]
[5]
  Lethal concentration (CL): 7.14 µM
[6]
  Lethal concentration (CL): 5.65 µM
[7]
  Lethal concentration (CL): 6.69 µM
[8]
  Lethal concentration (CL): 6.84 µM
[9]
  Lethal concentration (CL): 5.65 µM
[10]
  Lethal concentration (CL): 5.48 µM
[11]
  Lethal concentration (CL): 5.55 µM
[12]
  Lethal concentration (CL): 3.57 µM
[3]
  Lethal concentration (CL): 1.61 µM
[13]; [17]
  hemolysis: 66 ± 1.2%
[13]; peptide 6.25 μM
  hemolysis: ~100%
[14]
  hemolysis: nearly complete hemolysis

## FFGHLFKLATKIIPSLFQ [MUC-18, reference compound]
[3]
  Lethal concentration (CL): 35.64 µM

## CC[C@H](C)[C@H](NC(=O)CN)C(=O)NCC(=O)N[C@@H](C)C(=O)N[C@H](C(=O)N[C@@H](CC(C)C)C(=O)N[C@@H](CCCCN)C(=O)N[C@H](C(=O)N[C@@H](CC(C)C)C(=O)N[C@H](C(=O)N[C@H](C(=O)NCC(=O)N[C@@H](CC(C)C)C(=O)N1CCC[C@H]1C(=O)N[C@@H](C)C(=O)N[C@@H](CC(C)C)C(=O)N[C@H](C(=O)N[C@@H](CO)C(=O)N[C@@H](Cc1c[nH]c2ccccc12)C(=O)N[C@H](C(=O)N[C@@H](CCCCN)C(=O)N[C@@H](CCCNC(=N)N)C(=O)N[C@@H](CCCCN)C(=O)N[C@@H](CCCNC(=N)N)C(=O)N[C@@H](CCC(N)=O)C(=O)N[C@@H](CCC(N)=O)C(N)=O)[C@@H](C)CC)[C@@H](C)CC)[C@@H](C)O)[C@@H](C)O)C(C)C)C(C)C [Melittin, reference compound]
[7]
  Lethal concentration (CL): 24.74 µM
[10]
  Lethal concentration (CL): 18.20 µM
[11]
  Lethal concentration (CL): 23.53 µM
[3]
  Lethal concentration (CL): 24.74 µM
[13]; [17]
  hemolysis: complete hemolysis
[15]; 24 h, 0.72-1.44 nmol each well
  residual activity after incubation in mouse serum: only little or no activity remained

## FLFSLIPSAISGLINAFK-NH2 [MeuFSPL-2]
[7]
  Lethal concentration (CL): 19.57 µM
[8]
  Lethal concentration (CL): 12.72 µM
[15]; 4 h, 0.72 nmol/well
  residual activity after incubation in mouse serum: entirely lost

## FLFSLIPSAISGLISAFK-NH2 [MeuFSPL-1]
[5]
  Lethal concentration (CL): 14.84 µM
[7]
  Lethal concentration (CL): 15.33 µM
[8]
  Lethal concentration (CL): 14.64 µM
[12]
  Lethal concentration (CL): 8.21 µM
[13]; [17]
  hemolysis: 61 ± 2.5%
[13]; peptide 6.25 μM
  hemolysis: ~100%

## FFGHLFKLATKIIPSLFQRKKE [MUC-22]
[1]
  Lethal concentration (CL): 16.86 µM
[2]
  Lethal concentration (CL): 16.86 µM
[3]
  Lethal concentration (CL): 14.73 µM
[16]
  Lethal concentration (CL): 58.93 µM
[4]
  Lethal concentration (CL): 21.61 µM
